We go through three compounds from article PMC2990584, “Phase Ib study of CP-868,596, a PDGFR inhibitor, combined with docetaxel with or without axitinib, a VEGFR inhibitor” (British Journal of Cancer, 2010).

For one series, the system named is advanced solid tumours. Briefly: Antitumour activity (RECIST, FDG-PET, CT). Format: in vivo, human. As to conditions: single patient, metastatic epithelioid sarcoma. As for the experimental part: Radiological assessments were conducted at screening and within 7 days prior to cycle 1 docetaxel dose for DLs 1–3, and at screening and cycle 2 day 1 for DL 4. Subsequent assessments were every other cycle for all DLs.

Series [1] in a line: Pharmacokinetics in patients (HPLC/tandem MS, non-compartmental). Format: in vivo, human. As for the experimental part: In DL 4, sampling was conducted on day 8 (CP-868,596, axitinib, and docetaxel) and day 9 (CP-868,596 and axitinib) of cycle 1: samples were collected at 0 h (predose) and 1, 1.75, 3, 4.5, and 6.5 h post-dose on day 8 and at 0 h (predose) on day 9 for CP-868,596 and axitinib. Docetaxel concentrations were assessed at 1 (end of infusion), 1.75, and 6.5 h post-dose on day 8. Concentrations of CP-868,596, docetaxel, and axitinib were determined using validated HPLC/tandem mass spectrometry (HPLC/TMS) methods. Analytes were detected using an Applied-Biosystem Sciex API 3000/4000 LC/TMS system (MDI SCIEX, Concord, ON, Canada) operating in positive ion Electrospray mode. Non-compartmental pharmacokinetic analysis was performed using WinNonlin, version 3.2 (Pharsight, Mountain View, CA, USA). […] Tmax, half-life (t1/2), AUC0–48, and AUC0–infinity. […] Descriptive statistics were used when analysing patient demographics, safety, and tumour response data. Paired t-test was used to assess the impact of co-administration of docetaxel on CP-868,596 pharmacokinetics.

For the next series, the system named is tumour vasculature. The experiment in a line: DCE-MRI tumoural analysis. Format: in vivo, human. As to conditions: DL 2, eight patients. As for the experimental part: The DCE time course in the tumour was analysed on a pixel-by-pixel basis by fitting the data to the Kety equation and by integrating the area under the initial (i.e. the first 90 s) uptake curve. The contrast-agent concentration time course in plasma and tissue was inferred from the change in T1-weighted signal as a function of time. The Kety equation fitted the tissue contrast-agent time course to a two-compartment model: […] Ct are plasma and tissue concentration, respectively, K^trans is volume endothelial transfer constant between plasma and the extracellular extravascular space (EES), and Ve is fractional EES volume ([Ashton et al, 2008]).

In the next series the test system is PDGFR signalling pathway. The experiment in a line: Blood biomarkers of the PDGFR signalling pathway (SDS-PAGE, LI-COR). Format: in vivo, human. As for the experimental part: Blood samples for the evaluation of biomarkers potentially related to the PDGFR signalling pathway (serum Src homology phosphatase (SHP)2, phopho(p)-SHP2, pAKT, and pS6) were collected within 4 days of baseline and on day 14 in each cohort. Protein levels were analysed using gel electrophoresis (SDS–PAGE) and the LI-COR immunodetection system with appropriate antibodies.

The target of the next series is PDGFR-β tyrosine kinase. More on the design: method as in Lewis et al, 2009. The conditions noted are these: ref Lewis et al, 2009, cited from earlier work.
The subject of series [2] is patients with advanced cancers. Set-up: method as in Lewis et al, 2009. The conditions noted are these: ref Lewis et al, 2009, cited from earlier work.
The subject of the next series is xenograft models. More on the design: method as in Whalen et al, 2005. As to conditions: ref Whalen et al, 2005; cited from earlier work.
For series [3], the system named is patients with advanced solid tumors. Set-up: method as in Rugo et al, 2005. As to conditions: ref Rugo et al, 2005; cited from earlier work.
For series [4], the system named is PDGFR-β overexpressing mesothelioma cell lines. More on the design: method as in Wilmink and Richel, 2008. The conditions noted are these: in vitro; ref Wilmink and Richel, 2008; cited from earlier work.

Regarding `CC1(COc2ccc3c(c2)ncn3-c2ccc3cccc(N4CCC(N)CC4)c3n2)COC1` [CP-868,596], the FDG-PET response entry in the series on advanced solid tumours is “partial metabolic response”. Further, the “pharmacokinetic parameters and plasma concentration profiles on co-administration” value in series [1] (co-administration of docetaxel or docetaxel plus axitinib) was “unaffected”. Also, the “impact of co-administration of docetaxel on Cmax and AUC0–tau” value in [1] (human, in vivo) was “no significant impact”. Also, in the series on tumour vasculature, the “perfused AUC, median percentage change at day 14 relative to baseline” value is listed as −4.4%; the “perfused K^trans, median percentage change at day 14 relative to baseline” value is 12.7%; the “tumour volume, median percentage change at day 14 relative to baseline” value came out at 14.3; the “vascularised volume, median percentage change at day 14 relative to baseline” value was 16.6. The “SHP and pSHP relative to baseline” value in the series with PDGFR signalling pathway (day 14, DL 1 and DL 2, n=10) is “unchanged”. The “levels of pS6 in peripheral blood mononuclear cells relative to baseline” value in the series with PDGFR signalling pathway (day 14, DL 1 and DL 2, n=11, P=0.021) is recorded as “significantly decreased”. Moreover, the “levels of pAKT relative to baseline” value in the series on PDGFR signalling pathway (day 14, DL 1 and DL 2, n=12) was “non-significant increase”. Besides, the IC50 on PDGFR-β tyrosine kinase (PDGFR-β tyrosine kinase) was 0.4 ng ml^–1. Also, in the series on PDGFR-β tyrosine kinase, the “selectivity for PDGFR vs other related kinases” value is 50–100 fold. For the same compound, the most common toxicities entry in series [2] is “nausea, vomiting, diarrhoea, and transaminitis”. Moreover, the recommended dosage in series [2] (single agent, with food) was 100 mg twice daily (BID). For the same compound, the “Dose-limiting toxicities (DLTs) identified” value in [2] (single agent) is “haematuria, transaminitis, insomnia, and nausea/vomiting”. For the same compound, the “cytotoxicity of docetaxel and gemcitabine on combination” value with xenograft models is on record as “increased”.
As for `CNC(=O)c1ccccc1Sc1ccc2c(/C=C/c3ccccn3)n[nH]c2c1` [axitinib], in series [3], the main toxicities result is “fatigue, nausea, diarrhoea, and hypertension”.
On to `Cc1ccc(NC(=O)c2ccc(CN3CCN(C)CC3)cc2)cc1Nc1nccc(-c2cccnc2)n1` [imatinib], for which the effect on cells entry in [4] was “induced cytotoxicity and apoptosis”.
